Source: patent publication US20080064643A1, “Myd88 Homodimerization Inhibitors” (priority 2004, published 2008)
Blank lines part the entries; values can stand above or below the molecule they belong to. Starred links: 1 amine or outer side, 2 acyl side, 3 side chain; linkers in the order of their positions; H or OH if unused. Non-standard residues stand in square brackets, D forms with d. Residues, ends and D or L forms follow the SMILES beside them. *: point of attachment. AzaVal = azavaline, CC(C)N(N[*:1])C(=O)[*:2]; X1 = NC(=O)CN1CC[C@@]2(CCCN2*)C1=O; azaLeu = CC(C)CN(N[*:1])C(=O)[*:2]

Assays:
[1] = system: IL-1-responsive human IL-8 promoter gene region; assay: reporter gene assay (RGA) of luciferase activity in CaCo2 cells stimulated with IL-1; type: cell-based; settings: substance 100 μM, IL-1 500 pg/mL
Source text: It is based on transient co-transfection of CaCo2 human intestinal epithelial cells with a reporter gene plasmid whose luciferase reporter gene expression is under control of the IL-1-responsive human IL-8 promoter gene region. The second plasmid in co-transfection is a vector coding for a control Renilla luciferase reporter gene, whose constitutive expression is used to estimate unspecific cellular toxicity of tested compounds. The read-out of the assay has been defined as the Relative Response Ratio (RRR) for the firefly and the Renilla luciferase, as follows: [formula] where the experimental sample is the value in cont per second (cps) of the experimental reporter luminescence, as defined for any unknown sample. The positive control is the value in cps of the reporter luminescence, as defined for the sample which identifies the maximal induction by IL-1 in the absence of reference inhibitor compound. The negative control is the value in cps of the reporter luminescence, as defined for the sample which identifies the absence of induction by IL-1. For the non-inducible Renilla luciferase, the RRR has been defined as follows: [formula]
The RGA is the read-out of the above experiments, and it was run as follows:
Plate 6×10^6 adherent CaCo2 cells on 10 cm plates. After 18-24 hours culture medium is changed, using 9 mL of D-MEM+glutamine 580 mg/L, without FBS and antibiotics. For each plate, 26 μg of IL-1-responsive reporter vector DNA (pGL2-NA-INT) and 4 μg of control reporter vector DNA are then dissolved in 500 μL Optimem (Invitrogen). Lipofectamine 2000 Reagent (Invitrogen) 30 μL are then added to 500 μL Optimem; this latter reaction mix is incubated for 5 min at room temperature. The DNA mix is then added drop by drop to the Lipofectamine 2000 mix. The resulting DNA/Lipofectamine mix is incubated for 20 min at room temperature and it is added drop by drop over the culture plate, by gently rocking the plate itself. Culture plates are then incubated for about 6 hours at 37° C. and 5% CO2. Cells are then trypsinized and transferred in 96-well plates, at 5×10^4 cells/well in 100 μL of culture medium (D-MEM with FBS 1%,+glutamine 580 mg/L), as required by the experimental design. Afterwards, cells were incubated for 16-18 hours at 37° C. and 5% CO2 and treated as follows: • Take out culture medium from each well. • Add 60 μL of fresh culture medium to control cell wells. • Add 40 μL of fresh culture medium to IL-1-treated wells. • Add 40 μL of fresh culture medium and 20 μL of substance at a concentration of 100 μM and 0.4% DMSO to inhibitor substance wells. • Add 20 μL fresh culture medium supplemented with 0.4% DMSO in IL-1-treated wells and in control cell wells. • Incubate at 37° C. and 5% CO2 for 4 hours. • After 2 hours, stimulate with 20 μL of IL-1 (500 pg/mL) for two additional hours at 37° C. and 5% CO2. • Appropriate amount of luciferase standard protein is included in additional assay wells. • Add for each well 80 μL of firefly luciferase substrate (Dual-Glo Luciferase Assay System reagent). • Incubate at room temperature for 10 min. • Read the firefly luciferase output on the Veritas lumenometer (Turner BioSystems). • Immediately add to each well 80 μL of the Renilla luciferase substrate (Dual-Glo Luciferase Assay System reagent). • Incubate at room temperature for 10 min. • Read the Renilla luciferase output on the Veritas lumenometer (Turner BioSystems).
Compounds considered positive in the RGA assay were those that gave a percentage inhibition ≧20%.

NF-kB [2] = assay: NF-kB inhibition assay in HeLa cells stimulated with IL1α (Trans AM ELISA); type: cell-based, Human; settings: for % NF-κB INHIBITION: HeLa cells, compound 100 μM for 6 hours, then 5 ng/ml IL1α for 30 minutes; for inhibition at 100 µM: Homo sapiens, HeLa, read-out: % NF-κB INHIBITION
Experimental: The activation of NF-kB is an event that takes place downstream of the homodimerisation of MyD88 and its binding to the intracytoplasmic portions of number of receptor complexes. The ability of the compounds which are the subject of the present invention to inhibit the activation of NF-kB downstream of the amplification cascade of the signal triggered by IL1α was therefore evaluated.
All the molecules were assayed beforehand with the MTT cell viability test, verifying that the dose of compound used in the NF-kB inhibition assay was lower than the toxic dose.
HeLa* cells were cultured in EMEM (EBSS) medium supplemented with 2 mM glutamine+1% non-essential amino acids+7.5% FBS (Foetal Bovine Serum)+10 ml/l of a solution of penicillin-streptomycin (10,000 units/ml penicillin and 10 mg/ml streptomycin).
(All cell media and the various components were purchased from Sigma-Aldrich. *HeLa cell line Human Negroid cervix epithelioid carcinoma Human from SIGMA ALDRICH ECACC Ref No: 93021013. IL1α*=SIGMA I2778 Interleukin-1-alpha IL1a Human, recombinant expressed in E. coli).
The cells were used after a number of cell passages ranging from 14 to 35.
Cells are seeded in 6-well plates at a density of 300,000 cells/well in complete medium and incubated overnight at 37° C., 5% CO2.
After approximately 18 hours, the complete medium is eliminated, cells are washed twice with PBS 1× and 1 ml of FBS-free medium is added to each well.
The molecules to be tested are subsequently added to the medium at a concentration of 100 μM. Cells are then incubated for 6 hours at 37° C., 5% CO2.
All the molecules assayed were dissolved in DMSO.
An equivalent volume of DMSO is added to the negative controls, i.e. cells not treated with the molecules.
At the end of the treatment with the molecules, the cells are stimulated with 5 ng/ml of IL1α* for 30 minutes and incubated at 37° C., 5% CO2.
An equivalent volume of PBS/BSA 0.4% (solution used to dissolve IL1α) is added to the negative controls, i.e. non-stimulated cells.
After stimulation with IL1α the cells are washed twice with PBS 1× and collected by cell scraping.
The cells are then centrifuged at 800 rpm, 4° C., 10 min. The supernatants are eliminated. The pellets are re-suspended in lysis buffer**, incubated for 10 minutes at 4° C. and centrifuged at maximum speed at 4° C. The pellets are eliminated and the supernatants frozen at −80° C.
The total protein content is subsequently measured by Bradford Assay using, as the standard, BSA at known concentration, and as used in the ELISA assay as described here below.
Activation/inhibition of NF-kB is evaluated using the Trans AM# (Active Motif) kit.
Il Trans AM kit permits detection of the activation of NF-kB induced by IL1α, through a calorimetric reaction that is obtained at the end of a routine ELISA assay.
The kit provides 96-well plates derivatised with an oligonucleotide that contains the consensus site of NF-kB (5′-GGGACTTT-CC-3′). This oligonucleotide specifically binds only the active form of NF-kB which is released after stimulation with IL1α. The first antibody supplied for detecting NF-kB recognises the p65 epitope which is accessible only when the transcriptional factor is active and binds its target DBNA sequence.
The secondary antibody supplied is conjugated to horse radish peroxidase which, with the addition of a chromogenic substrate, makes it possible to obtain a calorimetric reaction that can be evaluated spectrophotometrically at the wavelength of 450 nm.
The samples are assayed in duplicate and 10 μg of each extract are loaded into each well.
At the end of the assay, the % inhibition is calculated by processing the values obtained in the spectrophotometric readings as follows:
IL*-C*/IL-C=% activation of NF-kB.
IL*=A450 of cells stimulated and treated with the study molecules.
C*=A450 of cells not stimulated and treated with the study molecules.
IL=A450 of cells stimulated with IL1α and not treated with the molecules.
C=A450 of cells not stimulated and not treated. […]

MyD88 homodimer = molecular target: T1, MyD88 homodimer (Homo sapiens, UniProt Q99836); assay: co-immunoprecipitation assay of MyD88 homodimerisation (myc-MyD88 / GST-MyD88TIR, Western blot); type: binding; settings: residual interaction in the MyD88 homodimer as percentage of the untreated protein; peptide 200 μM, 60 min at 4° C.
T1 construct: incubated with purified protein GST-MyD88TIR; made in house; host or cells: HEK293 (myc-MyD88, transient expression)
Source text: (§1) Preliminary studies on the inhibition of the homodimerisation of MyD88 have been conducted by the present inventors using a co-immunoprecipiation assay on a series of natural peptides (synthesised as acetylamide at the N terminal and as primary amide at the carboxyl terminal) comprising the consensus sequence of the BB loop. […] The protein myc-MyD88 is expressed temporarily in HEK293 cells and isolated from cell extracts by immunoprecipitation with the anti-myc antibody. The immunoprecipitated protein is incubated with purified protein GST-MyD88TIR for 60 min at 4° C. in the presence or absence of the synthetic peptide (final concentration 200 μM). After suitable washings, the proteins absorbed to the resin used for the immunoprecipitation are solubilised with SDS and analysed by Western blot for the presence of myc-MyD88 and GST-MyD88TIR. Percentage inhibition of NF-kB activation is also given for these two peptides

NF-kB [3] = assay: NF-kB activation inhibition, preliminary studies on natural peptides (Table 1); type: cell-based; settings: conditions not stated
Source text: as §1

T1 sequence (Q99836 whole entry): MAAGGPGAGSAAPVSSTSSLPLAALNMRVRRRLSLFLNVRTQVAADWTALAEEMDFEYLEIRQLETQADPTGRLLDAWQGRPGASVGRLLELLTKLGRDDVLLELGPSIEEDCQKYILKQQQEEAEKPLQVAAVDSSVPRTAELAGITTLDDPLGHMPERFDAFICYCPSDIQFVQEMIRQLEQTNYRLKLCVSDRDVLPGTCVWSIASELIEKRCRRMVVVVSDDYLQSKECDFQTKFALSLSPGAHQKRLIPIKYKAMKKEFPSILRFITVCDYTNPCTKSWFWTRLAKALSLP

Molecule: Ac-Arg-Asp-AzaLeu-Val-Pro-Gly-NH2 (Ac-RD[azaLeu]VPG-NH2; SMILES CC(=O)N[C@@H](CCCNC(=N)N)C(=O)N[C@@H](CC(=O)O)C(=O)NN(CC(C)C)C(=O)N[C@H](C(=O)N1CCC[C@H]1C(=O)NCC(N)=O)C(C)C) [ST2928]
% INHIBITION [1]: 29%

Molecule: CC(C)[C@H](NC(=O)[C@H](CC(=O)O)NC(=O)c1cccnc1)C(=O)N[C@H](C(=O)N1CCC[C@]12CCN(CC(N)=O)C2=O)C(C)C [ST2794, PAM9-Asp-Val-Val-Beta2-NH2]
% NF-κB INHIBITION (NF-kB [2]): 25%

Molecule: Ac-Arg-Asp-Azagly-Val-Pro-Gly-NH2 [ST2927]
% INHIBITION [1]: 22%

Molecule: H-Arg-Gly-AzaVal-Val-Pro-Gly-NH2 (H-RG[AzaVal]VPG-NH2; SMILES CC(C)[C@H](NC(=O)N(NC(=O)CNC(=O)[C@@H](N)CCCNC(=N)N)C(C)C)C(=O)N1CCC[C@H]1C(=O)NCC(N)=O) [ST2926]
% INHIBITION [1]: 20%

Molecule: CC(=O)NCC(=O)N1CCC[C@H]1C(=O)Nc1cccc(C(=O)N[C@@H](CCCNC(=N)N)C(N)=O)c1C [ST2864, Ac-Gly-Pro-SP30-Arg-NH2]
inhibition at 100 µM (NF-kB [2]): 16%

Molecule: Ac-Azagly-Azagly-pro-leu-val-asp-arg-NH2 [ST3032]
% INHIBITION [1]: 21%

Molecule: Ac-thr-gly-pro-leu-val-asp-arg-NH2 [ST2565]
% NF-κB INHIBITION (NF-kB [2]): 30%

Molecule: Ac-thr-Azagly-pro-leu-val-asp-arg-NH2 [ST2930]
% INHIBITION [1]: 24%

% residual interaction (MyD88 homodimer): 18%
Molecule: Ac-RDVVPGG-NH2 [ST2350]
% NF-kB inhibition (NF-kB [3]): 20%

% residual interaction (MyD88 homodimer): 29%
Molecule: Ac-RDVLPGT-NH2 [ST2348]
% NF-kB inhibition (NF-kB [3]): 37%

Molecule: Ap-PTDLVRG-NH2 [ST2403, reference compound]
inhibition of NF-κB activation (NF-kB [2]; HeLa cells stimulated with IL-1α): inactive

Molecule: CC(=O)N[C@H](CCCNC(=N)N)C(=O)N[C@H](CC(=O)O)C(=O)N[C@@H](C(=O)N[C@H](CC(C)C)C(=O)N1CCC[C@@]12CCN(CC(N)=O)C2=O)C(C)C [ST2799, Ac-arg-asp-val-leu-Beta1-NH2] (Ac-[dR][dD][dV][dL]-X1)
% NF-κB INHIBITION (NF-kB [2]): 23%

Molecule: COc1ccc(C(=O)N2CCC[C@]23CCN(CC(=O)N[C@H](C(N)=O)[C@@H](C)O)C3=O)cc1NC(=O)c1cccnc1 [ST2792, PAM9-SP02-Beta2-Thr-NH2]
inhibition at 100 µM (NF-kB [2]): 22%

Molecule: Ac-Arg-Asp-Val-AzaVal-Pro-Gly-NH2 [ST2920]
% INHIBITION [1]: 25%
